Experimental data: the supplement of paper PMC8671470

What follows are compounds tested on MOLM-13 (assay: cell viability (% survival relative to DMSO control, bortezomib = 0%); higher = less cytotoxic). Details: 10 nM; 72 h.
In short: (§1)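 In 384-well plates pre-printed with compounds at 1, 10, 100, 1000 or 10000 nM, duplicate wells received cells from 10 AML and 5 CML lines at densities within the linear growth range. The plates stayed at 37 °C with 5% CO2 for 72 h before CellTiter-Glo luminescence was recorded. Each entry is averaged percent survival. Scaling placed vehicle at 100% and a 10 µM positive control at 0%.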

Row | Compound | cell viability
1 | C=C(C=NNC(=N)N)NNC(=N)N [Mitoguazone] | 88.3%
2 | CCCCC/C=C\C/C=C\C/C=C\C/C=C\CCCCN1C(=O)C=CC1=O [N-Arachidonylmaleimide] | 109%
3 | CCCCCCCCCCC[C@@H](C[C@@H]1OC(=O)[C@H]1CCCCCC)OC(=O)[C@H](CC(C)C)NC=O [Orlistat] | 104%
4 | COc1ccc(C(=O)Nc2c(Cl)cncc2Cl)cc1OC1CCCC1 [Piclamilast] | 110%
5 | COc1cc(/C=C/C(=O)N2CCC=CC2=O)cc(OC)c1OC [Piperlongumine] | 87.6%
6 | O=C(NNc1ccccc1)c1ccncc1 [PluriSln 1] | 92%
7 | CC(C)c1nc(CN(C)C(=O)N[C@H](C(=O)N[C@@H](Cc2ccccc2)C[C@H](O)[C@H](Cc2ccccc2)NC(=O)OCc2cncs2)C(C)C)cs1 [Ritonavir] | 104%
8 | C=C(C)[C@H]1Cc2c(ccc3c2O[C@@H]2COc4cc(OC)c(OC)cc4[C@@H]2C3=O)O1 [Rotenone] | 77.8%
9 | Oc1ccc(Nc2nc(-c3ccc(Cl)cc3)cs2)cc1 [SKI II] | 104%
10 | O=C(O)c1cc(N=Nc2ccc(S(=O)(=O)Nc3ccccn3)cc2)ccc1O [Sulfasalazine] | 102%

Same assay, conditions: 100 nM; 72 h

Row | Compound | cell viability
11 | CCCCN1C[C@H](O)[C@@H](O)[C@H](O)[C@H]1CO [Miglustat] | 90.7%
12 | C=C(C=NNC(=N)N)NNC(=N)N [Mitoguazone] | 133%
13 | CCCCC/C=C\C/C=C\C/C=C\C/C=C\CCCCN1C(=O)C=CC1=O [N-Arachidonylmaleimide] | 101%
14 | CCCCCCCCCCC[C@@H](C[C@@H]1OC(=O)[C@H]1CCCCCC)OC(=O)[C@H](CC(C)C)NC=O [Orlistat] | 87.9%
15 | COc1ccc(C(=O)Nc2c(Cl)cncc2Cl)cc1OC1CCCC1 [Piclamilast] | 67.4%
16 | COc1cc(/C=C/C(=O)N2CCC=CC2=O)cc(OC)c1OC [Piperlongumine] | 99.5%
17 | O=C(NNc1ccccc1)c1ccncc1 [PluriSln 1] | 96.7%
18 | CC(C)c1nc(CN(C)C(=O)N[C@H](C(=O)N[C@@H](Cc2ccccc2)C[C@H](O)[C@H](Cc2ccccc2)NC(=O)OCc2cncs2)C(C)C)cs1 [Ritonavir] | 95.3%
19 | C=C(C)[C@H]1Cc2c(ccc3c2O[C@@H]2COc4cc(OC)c(OC)cc4[C@@H]2C3=O)O1 [Rotenone] | 67.2%
20 | Oc1ccc(Nc2nc(-c3ccc(Cl)cc3)cs2)cc1 [SKI II] | 110%
21 | O=C(O)c1cc(N=Nc2ccc(S(=O)(=O)Nc3ccccn3)cc2)ccc1O [Sulfasalazine] | 113%

Same assay, conditions: 1000 nM; 72 h

Row | Compound | cell viability
22 | CCCCN1C[C@H](O)[C@@H](O)[C@H](O)[C@H]1CO [Miglustat] | 93.9%
23 | C=C(C=NNC(=N)N)NNC(=N)N [Mitoguazone] | 52.2%
24 | CCCCC/C=C\C/C=C\C/C=C\C/C=C\CCCCN1C(=O)C=CC1=O [N-Arachidonylmaleimide] | 110%
25 | CCCCCCCCCCC[C@@H](C[C@@H]1OC(=O)[C@H]1CCCCCC)OC(=O)[C@H](CC(C)C)NC=O [Orlistat] | 65.3%
26 | COc1ccc(C(=O)Nc2c(Cl)cncc2Cl)cc1OC1CCCC1 [Piclamilast] | 103%
27 | COc1cc(/C=C/C(=O)N2CCC=CC2=O)cc(OC)c1OC [Piperlongumine] | 75.7%
28 | O=C(NNc1ccccc1)c1ccncc1 [PluriSln 1] | 87.1%
29 | CC(C)c1nc(CN(C)C(=O)N[C@H](C(=O)N[C@@H](Cc2ccccc2)C[C@H](O)[C@H](Cc2ccccc2)NC(=O)OCc2cncs2)C(C)C)cs1 [Ritonavir] | 96.2%
30 | C=C(C)[C@H]1Cc2c(ccc3c2O[C@@H]2COc4cc(OC)c(OC)cc4[C@@H]2C3=O)O1 [Rotenone] | 2.3%
31 | Oc1ccc(Nc2nc(-c3ccc(Cl)cc3)cs2)cc1 [SKI II] | 106%
32 | O=C(O)c1cc(N=Nc2ccc(S(=O)(=O)Nc3ccccn3)cc2)ccc1O [Sulfasalazine] | 84.6%

Same assay, conditions: 10000 nM; 72 h

Row | Compound | cell viability
33 | CCCCN1C[C@H](O)[C@@H](O)[C@H](O)[C@H]1CO [Miglustat] | 90.8%
34 | C=C(C=NNC(=N)N)NNC(=N)N [Mitoguazone] | 13.8%
35 | CCCCC/C=C\C/C=C\C/C=C\C/C=C\CCCCN1C(=O)C=CC1=O [N-Arachidonylmaleimide] | 88%
36 | CCCCCCCCCCC[C@@H](C[C@@H]1OC(=O)[C@H]1CCCCCC)OC(=O)[C@H](CC(C)C)NC=O [Orlistat] | 95.2%
37 | COc1ccc(C(=O)Nc2c(Cl)cncc2Cl)cc1OC1CCCC1 [Piclamilast] | 88.1%
38 | COc1cc(/C=C/C(=O)N2CCC=CC2=O)cc(OC)c1OC [Piperlongumine] | 0.668%
39 | O=C(NNc1ccccc1)c1ccncc1 [PluriSln 1] | 25.4%
40 | CC(C)c1nc(CN(C)C(=O)N[C@H](C(=O)N[C@@H](Cc2ccccc2)C[C@H](O)[C@H](Cc2ccccc2)NC(=O)OCc2cncs2)C(C)C)cs1 [Ritonavir] | 99.3%
41 | C=C(C)[C@H]1Cc2c(ccc3c2O[C@@H]2COc4cc(OC)c(OC)cc4[C@@H]2C3=O)O1 [Rotenone] | 0.733%
42 | Oc1ccc(Nc2nc(-c3ccc(Cl)cc3)cs2)cc1 [SKI II] | 44.3%
43 | O=C(O)c1cc(N=Nc2ccc(S(=O)(=O)Nc3ccccn3)cc2)ccc1O [Sulfasalazine] | 136%

These compounds were tested on Mono-Mac-6 in the same assay as above. Details: 1 nM; 72 h.
In short: as §1

Row | Compound | cell viability
44 | CCCCN1C[C@H](O)[C@@H](O)[C@H](O)[C@H]1CO [Miglustat] | 82.9%
45 | C=C(C=NNC(=N)N)NNC(=N)N [Mitoguazone] | 92.4%
46 | CCCCC/C=C\C/C=C\C/C=C\C/C=C\CCCCN1C(=O)C=CC1=O [N-Arachidonylmaleimide] | 94%
47 | CCCCCCCCCCC[C@@H](C[C@@H]1OC(=O)[C@H]1CCCCCC)OC(=O)[C@H](CC(C)C)NC=O [Orlistat] | 114%
48 | COc1ccc(C(=O)Nc2c(Cl)cncc2Cl)cc1OC1CCCC1 [Piclamilast] | 93.6%
49 | COc1cc(/C=C/C(=O)N2CCC=CC2=O)cc(OC)c1OC [Piperlongumine] | 94.3%
50 | O=C(NNc1ccccc1)c1ccncc1 [PluriSln 1] | 106%
51 | CC(C)c1nc(CN(C)C(=O)N[C@H](C(=O)N[C@@H](Cc2ccccc2)C[C@H](O)[C@H](Cc2ccccc2)NC(=O)OCc2cncs2)C(C)C)cs1 [Ritonavir] | 91.7%
52 | C=C(C)[C@H]1Cc2c(ccc3c2O[C@@H]2COc4cc(OC)c(OC)cc4[C@@H]2C3=O)O1 [Rotenone] | 94.1%
53 | Oc1ccc(Nc2nc(-c3ccc(Cl)cc3)cs2)cc1 [SKI II] | 99.2%
54 | O=C(O)c1cc(N=Nc2ccc(S(=O)(=O)Nc3ccccn3)cc2)ccc1O [Sulfasalazine] | 105%

Same assay, conditions: 10 nM; 72 h

Row | Compound | cell viability
55 | CCCCN1C[C@H](O)[C@@H](O)[C@H](O)[C@H]1CO [Miglustat] | 90.4%
56 | C=C(C=NNC(=N)N)NNC(=N)N [Mitoguazone] | 92.3%
57 | CCCCC/C=C\C/C=C\C/C=C\C/C=C\CCCCN1C(=O)C=CC1=O [N-Arachidonylmaleimide] | 101%
58 | CCCCCCCCCCC[C@@H](C[C@@H]1OC(=O)[C@H]1CCCCCC)OC(=O)[C@H](CC(C)C)NC=O [Orlistat] | 91.1%
59 | COc1ccc(C(=O)Nc2c(Cl)cncc2Cl)cc1OC1CCCC1 [Piclamilast] | 107%
60 | COc1cc(/C=C/C(=O)N2CCC=CC2=O)cc(OC)c1OC [Piperlongumine] | 107%
61 | O=C(NNc1ccccc1)c1ccncc1 [PluriSln 1] | 103%
